Data published in US20250248940A1, “Biopolymer Formulations for Drug Delivery” (11584022 Canada Inc., priority 2022, published 2025).

Test: release of API into water from dried API-biopolymer pellets, measured by UV/VIS spectroscopy
Type: physicochemical
Settings: from the dry biopolymer matrix, versus acetyl salicylic acid
Experimental: Briefly biopolymer suspensions were produced with a known quantity of API added to the suspensions. The suspensions with API were then dried as pellets. These pellets were then added to a known volume of water and aliquots of the water were removed periodically to determine the rate of release of the API. The API concentration was measured using UV/VIS spectroscopy. The sample was dried for 10 hours in air and 3 hours in the oven at 50° C. The acetaminophen concentration in dried materials was 29.58% w/w. This figure represents release of acetaminophen into water from the dried acetaminophen doped chitin suspension, where the concentration of acetaminophen, in g/L, is plotted against time, in minutes.

Structure (SMILES): CC(=O)Nc1ccc(O)cc1 [acetaminophen]
- release rate compared between drugs: slower release
